Results from patent US9469674B2 (HAINAN UNIVERSITY, dated 2016).

Tested on: Chronic Constriction Injury model of ischiadic nerve (neuralgia)
Details: rat, in vivo

CN1CC[C@]23c4c5ccc(O)c4O[C@H]2[C@@H](O)C=C[C@H]3[C@H]1C5 [morphine, reference compound]
analgesic effect on neuralgia: no analgesic effect
mechanical threshold after withdrawal: no significant difference
